Earlier results as cited in US10927398B2, “Compositions for CYP450 phenotyping using saliva samples” (Concordia University, Inc., priority 2015, dated 2021).
Read-outs that look alike come from different tables or passages of the source.

Legend:
[1] = cited from earlier work
plasma protein = settings: cited from earlier work
[2] = cited from earlier work; remark: listed apart in the source
CYP450 enzymes = settings: CYP isoforms listed; Table of Exemplary Drugs, CYP1A2; cited from earlier work
[3] = Table of Exemplary Drugs, CYP3A4
[4] = Table of Exemplary Drugs, CYP2C9
[5] = Table of Exemplary Drugs, CYP2C19
[6] = Table of Exemplary Drugs, CYP2D6
[7] = Table of Exemplary Drugs, CYP1A2

In the case of CO[C@H]1C[C@@H]2CC[C@@H](C)[C@@](O)(O2)C(=O)C(=O)N2CCCC[C@H]2C(=O)O[C@H]([C@H](C)C[C@@H]2CC[C@@H](O)[C@H](OC)C2)CC(=O)[C@H](C)/C=C(\C)[C@@H](O)[C@@H](OC)C(=O)[C@H](C)C[C@H](C)/C=C/C=C/C=C/1C [Sirolimus (Rapamune), Sirolimus], the “ORAL BIOAVAILABILITY” value [1, 3] is given as 14-27%, the “PLASMA PROTEIN BINDING” value (plasma protein; [3]) is given as 92% and the “HALF-LIFE” value [2, 3] is given as 61.3 to 72.3 h.
In the case of O=C(O[C@H]1CN2CCC1CC2)N1CCc2ccccc2[C@@H]1c1ccccc1 [Solifenacin (Vesicare), Solifenacin], the “ORAL BIOAVAILABILITY” value ([1]; in vivo, po) is listed as 90%, the “PLASMA PROTEIN BINDING” value (plasma protein; plasma) is listed as 98% and the “HALF-LIFE” value ([2]; in vivo) is listed as 45 to 68 h.
For CC(C(=O)O)c1ccc(C(=O)c2cccs2)cc1 (stereo not drawn) [Suprofen], the “ORAL BIOAVAILABILITY” value [1, 4] is given as 92%, the “PLASMA PROTEIN BINDING” value (plasma protein; [4]) is given as >99% and the “HALF-LIFE” value [2, 4] is given as 2 to 4 h.
In the case of CCCCCc1cc(O)c2c(c1)OC(C)(C)[C@@H]1CCC(C)=C[C@@H]21 [THC], the “ORAL BIOAVAILABILITY” value [1, 4] is given as 10-35%, the “PLASMA PROTEIN BINDING” value (plasma protein; [4]) is given as 97-99% ^ and the “HALF-LIFE” value [2, 4] is given as 1.6 to 59 h.
For Nc1c2c(nc3ccccc13)CCCC2 [Tacrine], the “ORAL BIOAVAILABILITY” value ([1]; in vivo, po) is given as 2.4-36%, the “PLASMA PROTEIN BINDING” value (plasma protein; plasma) is given as 55% and the “HALF-LIFE” value ([2]; in vivo) is given as 2 to 4 h.
In the case of C=CC[C@@H]1/C=C(\C)C[C@H](C)C[C@H](OC)[C@H]2O[C@@](O)(C(=O)C(=O)N3CCCC[C@H]3C(=O)O[C@H](/C(C)=C/[C@@H]3CC[C@@H](O)[C@H](OC)C3)[C@H](C)[C@@H](O)CC1=O)[C@H](C)C[C@@H]2OC [Tacrolimus (Prograf), Tacrolimus], the “ORAL BIOAVAILABILITY” value [1, 3] is listed as 17-31%, the “PLASMA PROTEIN BINDING” value (plasma protein; [3]) is listed as 99% and the “HALF-LIFE” value [2, 3] is listed as 8.7 to 37.9 h.
For CCOc1ccccc1OCCN[C@H](C)Cc1ccc(OC)c(S(N)(=O)=O)c1 [Tamsulosin (Flomax), Tamsulosin], the “ORAL BIOAVAILABILITY” value [1, 3] is listed as >90%, the “PLASMA PROTEIN BINDING” value (plasma protein; [3]) is listed as 94-99% ^ and the “HALF-LIFE” value [2, 3] is listed as 9 to 15 h.
In the case of CC[C@@H](c1cccc(O)c1)[C@@H](C)CN(C)C [Tapentadol], the “ORAL BIOAVAILABILITY” value [1, 4] is listed as 32%, the “ORAL BIOAVAILABILITY” value [1, 5] is listed as 32% and the “ORAL BIOAVAILABILITY” value [1, 6] is listed as 32%. The “PLASMA PROTEIN BINDING” value (plasma protein; [4]) was 20%, the “PLASMA PROTEIN BINDING” value (plasma protein; [5]) was 20% and the “PLASMA PROTEIN BINDING” value (plasma protein; [6]) was 20%. The “HALF-LIFE” value [2, 4] was 4 to 5 h, the “HALF-LIFE” value [2, 5] was 4 to 5 h and the “HALF-LIFE” value [2, 6] was 4 to 5 h.
For CN(C/C=C/C#CC(C)(C)C)Cc1cccc2ccccc12 [Terbinafine], the “ORAL BIOAVAILABILITY” value [1, 4] is listed as 40%, the “PLASMA PROTEIN BINDING” value (plasma protein; [4]) is listed as >99% and the “HALF-LIFE” value [2, 4] is listed as 22 to 26 h.
For C[C@]12CC[C@H]3[C@@H](CCC4=CC(=O)CC[C@@]43C)[C@@H]1CC[C@@H]2O [Testosterone], the “ORAL BIOAVAILABILITY” value ([1]; in vivo, po) is given as “Varies”, the “PLASMA PROTEIN BINDING” value (plasma protein; plasma) is given as 98% and the “HALF-LIFE (hrs)” value ([2]; in vivo) is given as “varies”.
For Cn1c(=O)c2[nH]cnc2n(C)c1=O [Theophylline], the “ORAL BIOAVAILABILITY” value [1, 7] is listed as ~100%, the “HALF-LIFE” value [2, 7] is listed as 1.5 to 9.8 h and the METABOLISM (CYP450 enzymes) is listed as 2E1.
In the case of Cc1ccsc1C(=CCCN1CCC[C@@H](C(=O)O)C1)c1sccc1C [Tiagabine (Gabitril), Tiagabine], the “ORAL BIOAVAILABILITY” value [1, 3] is listed as 90%, the “PLASMA PROTEIN BINDING” value (plasma protein; [3]) is listed as 96% and the “HALF-LIFE” value [2, 3] is listed as 7 to 9 h.
In the case of CCS(=O)(=O)CCn1c([N+](=O)[O-])cnc1C [Tinidazole (Tindamax), Tinidazole], the “ORAL BIOAVAILABILITY” value [1, 3] is given as 100%, the “PLASMA PROTEIN BINDING” value (plasma protein; [3]) is given as 12% and the “HALF-LIFE” value [2, 3] is given as 11.1 to 14.7 h.
In the case of CCC[C@@]1(CCc2ccccc2)CC(O)=C([C@H](CC)c2cccc(NS(=O)(=O)c3ccc(C(F)(F)F)cn3)c2)C(=O)O1 [Tipranavir (Aptivus), Tipranavir], the “ORAL BIOAVAILABILITY” value [1, 3] is listed as 30?%, the “PLASMA PROTEIN BINDING” value (plasma protein; [3]) is listed as 99.9%^ and the “HALF-LIFE” value [2, 3] is listed as 5.5 to 6 h.
In the case of Cc1cccc(Nc2ccncc2S(=O)(=O)NC(=O)NC(C)C)c1 [Torasemide], the “ORAL BIOAVAILABILITY” value [1, 4] is given as 80%, the “PLASMA PROTEIN BINDING” value (plasma protein; [4]) is given as >99% and the “HALF-LIFE” value [2, 4] is given as 2.2 to 3.8 h.
For COc1cccc(C2(O)CCCCC2CN(C)C)c1 (stereo not drawn) [Tramadol], the “ORAL BIOAVAILABILITY” value [1, 6] is given as 75%, the “PLASMA PROTEIN BINDING” value (plasma protein; [6]) is given as 20% and the “HALF-LIFE” value ([2]; in vivo) is given as 5.6 to 5.7 h.
In the case of CN1[C@@H]2CC[C@H]1C[C@@H](OC(=O)c1c[nH]c3ccccc13)C2 [Tropisetron], the “ORAL BIOAVAILABILITY” value [1, 6] is listed as 60-100%, the “PLASMA PROTEIN BINDING” value (plasma protein; [6]) is listed as 71% and the “HALF-LIFE” value [2, 6] is listed as 5.6 to 8.6 h.
For CCCc1nc(C)c2c(=O)[nH]c(-c3cc(S(=O)(=O)N4CCN(CC)CC4)ccc3OCC)nn12 [Vardenafil (Levitra), Vardenafil], the “ORAL BIOAVAILABILITY” value [1, 3] is listed as 15-44%, the “PLASMA PROTEIN BINDING” value (plasma protein; [3]) is listed as 95% and the “HALF-LIFE” value [2, 3] is listed as 4 to 5 h.
For CN1CCN(C(=O)OC2c3nccnc3C(=O)N2c2ccc(Cl)cn2)CC1 (stereo not drawn) [Zopiclone (Imovane), Zopiclone], the “ORAL BIOAVAILABILITY” value [1, 3] is given as 80%, the “PLASMA PROTEIN BINDING” value (plasma protein; [3]) is given as 45% and the “HALF-LIFE” value [2, 3] is given as 3.5 to 6.5 h.
For OCCN1CCN(CC/C=C2/c3ccccc3Sc3ccc(Cl)cc32)CC1 [Zuclopenthixol], the “ORAL BIOAVAILABILITY” value [1, 6] is given as 49%, the “PLASMA PROTEIN BINDING” value (plasma protein; [6]) is given as 98% and the “HALF-LIFE” value [2, 6] is given as 20 h.
In the case of Polyunsaturated FAs, the “ORAL BIOAVAILABILITY” value [1, 4] is given as 64-73%, the “PLASMA PROTEIN BINDING” value (plasma protein; [4]) is given as >99% and the “HALF-LIFE” value [2, 4] is given as 2.7 to 5.5 h.
